Test results published in ChEMBL document CHEMBL1121752, “Cell-specific ligands for selective drug delivery to tissues and organs” (J Med Chem, 1981).
pKi: −log10 of the molar value.

How the values were obtained:
[1] = Compound was evaluated for the inhibition of [125I]-labeled D-mannose-bovine serum albumin binding to alveolar macrophages; set-up: species or system Rattus norvegicus
Rattus norvegicus [2] = organism: Rattus norvegicus; experiment: Compound was evaluated for the inhibition of [125I]-labeled D-mannose-bovine serum albumin binding to alveolar macrophages at 100 uM
Rattus norvegicus [3] = organism: Rattus norvegicus; experiment: Compound was evaluated for the inhibition of [125I]-labeled D-mannose-bovine serum albumin binding to alveolar macrophages at 10 uM
Rattus norvegicus [4] = organism: Rattus norvegicus; experiment: Compound was evaluated for the inhibition of [125I]-labeled D-mannose-bovine serum albumin binding to alveolar macrophages at 50 uM

Row | pKi [1] | inhibition (Rattus norvegicus [2]) [%] | inhibition (Rattus norvegicus [3]) [%] | inhibition (Rattus norvegicus [4]) [%] | Structure (SMILES)
1 | 5.21 |  |  |  | O=C(CCSC1OC(CO)C(O)C(O)C1O)NCCCC[C@@H](NC(=O)CCSC1OC(CO)C(O)C(O)C1O)C(=O)O (stereo partly specified)
2 | 4.00 |  |  |  | N/C(CSC1OC(CO)C(O)C(O)C1O)=N\CCCC[C@@H](/N=C(\N)CSC1OC(CO)C(O)C(O)C1O)C(=O)O (stereo partly specified)
3 |  | 2 | 0 | 0 | O=C(CCSC1OC(CO)C(O)C(O)C1O)NCCCCC(NC(=O)[C@@H](CCCCNC(=O)CCSC1OC(CO)C(O)C(O)C1O)NC(=O)CCSC1OC(CO)C(O)C(O)C1O)C(=O)O (stereo in doubt; 31)
4 | 5.41 |  |  |  | O=C(CCSC1OC(CO)C(O)C(O)C1O)NCCCCC(NC(=O)[C@@H](CCCCNC(=O)CCSC1OC(CO)C(O)C(O)C1O)NC(=O)CCSC1OC(CO)C(O)C(O)C1O)C(=O)O (stereo in doubt; 14) [listing 1 of 2 here]
5 | 5.10 | 5 |  |  | NCCCCCCNC(=O)C(CCCCNC(=O)CCSC1OC(CO)C(O)C(O)C1O)NC(=O)[C@@H](CCCCNC(=O)CCSC1OC(CO)C(O)C(O)C1O)NC(=O)CCSC1OC(CO)C(O)C(O)C1O (stereo partly specified)
6 |  | 45 | 9 |  | CC1OC(SCCC(=O)NCCCCC(NC(=O)[C@@H](CCCCNC(=O)CCSC2OC(C)C(O)C(O)C2O)NC(=O)CCSC2OC(C)C(O)C(O)C2O)C(=O)O)C(O)C(O)C1O (stereo partly specified)
7 | 5.40 |  |  |  | CC(C)CCCC(C)C1CCC2C3CC=C4CC(OCCCCCCNC(=O)C(CCCCNC(=O)CCSC5OC(CO)C(O)C(O)C5O)NC(=O)[C@@H](CCCCNC(=O)CCSC5OC(CO)C(O)C(O)C5O)NC(=O)CCSC5OC(CO)C(O)C(O)C5O)CCC4(C)C3CCC12C (stereo partly specified)
8 |  | 89 | 43 | 81 | O=C(CCSC1OC(CO)C(O)C(O)C1O)NCCCCC(NC(=O)[C@@H](CCCCNC(=O)CCSC1OC(CO)C(O)C(O)C1O)NC(=O)CCSC1OC(CO)C(O)C(O)C1O)C(=O)O (stereo in doubt; 14) [listing 2 of 2 here]
9 | 5.03 |  |  |  | O=C(CCSC1OC(CO)C(O)C(O)C1O)NCCCCC(NC(=O)[C@@H](CCCCNC(=O)CCSC1OC(CO)C(O)C(O)C1O)NC(=O)CCSC1OC(CO)C(O)C(O)C1O)C(=O)NCCCCCCNC(=O)CCc1ccc(O)cc1 (stereo partly specified)
10 | 5.22 |  |  |  | CC(=O)C(CCCC/N=C(/N)CSC1OC(CO)C(O)C(O)C1O)NC(=O)[C@@H](CCCC/N=C(\N)CSC1OC(CO)C(O)C(O)C1O)/N=C(\N)CSC1OC(CO)C(O)C(O)C1O (stereo partly specified)
11 |  | 81 | 27 | 68 | O=C(CSC1OC(CO)C(O)C(O)C1O)NCCCCC(NC(=O)[C@@H](CCCCNC(=O)CSC1OC(CO)C(O)C(O)C1O)NC(=O)CSC1OC(CO)C(O)C(O)C1O)C(=O)O (stereo partly specified)
12 | 5.44 |  |  |  | O=C(CCSC1OC(CO)C(O)C(O)C1O)NCCCCC(NC(=O)C(CCCCNC(=O)CCSC1OC(CO)C(O)C(O)C1O)NC(=O)[C@@H](CCCCNC(=O)CCSC1OC(CO)C(O)C(O)C1O)NC(=O)CCSC1OC(CO)C(O)C(O)C1O)C(=O)O (stereo partly specified)
13 | 5.11 |  |  |  | O=C(CCSC1OC(CO)C(O)C(O)C1O)NCCCC[C@H](NC(=O)CCSC1OC(CO)C(O)C(O)C1O)C(=O)O (stereo partly specified)
